From patent US6855504B2, “In vivo high throughput toxicology screening method” (priority 1999, dated 2005)
Like-named read-outs stand apart in the source and are kept apart here.

Legend:
Type in all cases: in vivo
Rat = tested on: Rat
Protocol: (§1) Using standard protocols, including the ones described above for administration to flies, a variety of agents were administered at different doses to mice, rats and flies and the LD for each agent was compared.

Fly = tested on: Fly
Protocol: The chemical is dissolved in water at or near its saturation point. Serial dilutions of this stock solution are used to rehydrate instant fly media (Fisher Scientific). Specifically, one toxicity assay will comprise of instant fly media rehydrated with pure stock solution of a chemical, while another will be rehydrated with a 10% solution of the chemical (in water). This format will be used to generate data over a 4 to 5 log dose range for each chemical tested.
A known quantity of embryos, typically between 40-50, is used as the input. Specifically, 40 to 50 embryos are counted and placed in the receptacle that contains the media/chemical mixture to be tested. The embryos may be counted manually or by automation (e.g., liquid suspension of embryos flowing through a diode). The larva feed on the media/chemical mixture. All aspects of development from larva stage to adult must proceed normally in the presence of the chemical. The only food and water source available to the larva and flies contains the chemical. […] Specifically, Iron, Copper, and zinc have been selected. Sensitive and accurate kits are commercially available to analyze these chemicals down to a concentration of 1 part per million. This will assign quantitative analyses to determine variability between larva in a test receptacle and between larva in different receptacles.
The developing larva and pupa are examined for normal growth and development. Then the adult flies are analyzed for lethality, sterility, developmental defects, and life span alterations. Lethality is determined by dividing the number of adult flies that eclose by the total number of embryos that were placed in the receptacle. Sterility is examined for both males and females by crossing them to normal flies. […] Finally the flies are allowed to live the natural span of their life to determine whether an effect occurred to either shorten or lengthen the average lifespan of the fly.
as §1

fruit fly = test: AntiToxicity screen: fly survival with toxins with and without EDTA; settings: yeast paste: None
Source text: This binding can occur in vitro or in vivo. In vivo binding can lead to neutralizing the toxicity of heavy metals to animals.

Mouse = tested on: Mouse
Protocol: as §1

| SMILES | Rat (oral LD50 mg/ml) (Rat; oral) [mg/mL] | Fly (oral LD50 mg/ml) (Fly; oral, chemical in fly media) | Mouse (oral LD50 mg/ml) (Mouse; oral) [mg/mL] | other results |
| --- | --- | --- | --- | --- |
| CN(C)c1ccncc1 [4-dimethyl aminopyridine] | 250 | .15 mg/mL |  |  |
| [Cu] [Copper] |  |  |  | % survival (fruit fly; fly food: 0.4 mM Copper): 50%; % survival (fruit fly; fly food: 1.1 mM Copper): 0% |
| N[C@@H](Cc1ccc(O)c(O)c1)C(=O)O [L-dopa] | 1780 | .7 mg/mL | 2363 |  |
| [Zn] [Zinc] |  |  |  | % survival (fruit fly; fly food: 2 mM Zinc): 50%; % survival (fruit fly; fly food: 6.0 mM Zinc): 0% |
| O=S1(=O)OC(c2cc(Br)c(O)c(Br)c2)(c2cc(Br)c(O)c(Br)c2)c2ccccc21 [bromophenol blue] |  | 10 mg/mL |  |  |
| [Cl][Cd][Cl] [cadmium chloride] | 88 | .1 mg/mL | 60 |  |
| Clc1cccc(Cl)c1N=C1NCCN1 [clonidine] |  |  |  | Mouse (oral LD50 mg/ml) (Mouse; in vivo, po): 135 mg/mL; Rat (oral LD50 mg/ml) (Rat; in vivo, po): 126 mg/mL; Fly (oral LD50 mg/ml) (Fly; in vivo, po): .07 mg/mL |
| [Cl-].[Li+] [lithium chloride] | 526 | .4 mg/mL | 1165 |  |
| COP(=O)(OC)C(O)C(Cl)(Cl)Cl (stereo not shown) [metrifonate] | 560 | .04 mg/mL | 300 | toxicity category in mice (Mouse; mice, oral LD50 category): moderate toxicity; toxicity category in rats (Rat; rats, oral LD50 category): moderate toxicity; toxicity category in flies (Fly; flies, oral LD50 category): high toxic range |
| NC(=O)c1cccnc1 [niacinamide] |  |  |  | Mouse (oral LD50 mg/ml) (Mouse; in vivo, po): 2500 mg/mL; Rat (oral LD50 mg/ml) (Rat; in vivo, po): 3500 mg/mL; Fly (oral LD50 mg/ml) (Fly; in vivo, po): 5 mg/mL |
| Nc1ccccc1N [phenylenediamine] | 510 | .2 mg/mL | 366 |  |
| [N-]=[N+]=[N-] [sodium azide] | 27 | .05 mg/mL | 27 |  |
| O.O.O.O.O.O.O.O.O.O.[Na+].[Na+].[O-]B1OB2OB([O-])OB(O1)O2 [sodium borate] | 2660 | 6.5 mg/mL | 2000 |  |
